In patent publication US8900636B2, “Controlled release compositions” (Evonik Corporation, priority 2003, dated 2014):

Assay: Stability of free peptide incubated in release medium (HPLC)
Format: physicochemical
Settings: PBS, pH 7.2, 37° C., after 49 days
Method: Octreotide acetate as the free peptide was measured to be 95% intact by high-pressure liquid chromatography (HPLC) following incubation in the release medium (PBS, pH 7.2, 37° C.) after 49 days. In contrast, incubation of octreotide acetate PLGA microparticle formulations produced 55% of modified peptide species after 70 days in the release medium (PBS, pH 7.2, 37° C., Table 2). […] The masses found were consistent with random acylation, for example, peptide plus one or two glycolic or lactic acid monomers in any combination. It may be that acylation products arise from attack on PLGA fragments or the polymer backbone by nucleophilic moieties in octreotide. At a lower pH these moieties likely would be protonated reducing their nucleophilicity and consequently the amount of acylated product. It was observed that formation of acylated byproducts for octreotide acetate PLGA microparticles incubated in 100 mM sodium acetate (NaOAc, pH 4.0) buffer was reduced to 1.25% at 49 days, in marked contrast to the results for PBS buffer (55%).

## C[C@@H](O)[C@@H]1NC(=O)[C@H](CCCCN)NC(=O)[C@@H](Cc2c[nH]c3ccccc23)NC(=O)[C@H](Cc2ccccc2)NC(=O)[C@@H](NC(=O)[C@H](N)Cc2ccccc2)CSSC[C@@H](C(=O)N[C@H](CO)[C@@H](C)O)NC1=O [Octreotide acetate, octreotide acetate]
  intact peptide by HPLC: 95%
